pIC50, pKd: −log10 of the molar value.
Assays:
[1] = target: SUV39H2 (Homo sapiens (Human), UniProt Q9H5I1); assay: Methyltransferase panel, 10-dose IC50 mode; format: biochemical; settings: Substrate: Histone H3; 1 μM SAM; read-out: Control IC50*
Description: (§1) Compound 72b was further tested against a plurality of methyltransferases as described in the following. […] Reactions were carried out at 1 μM SAM. Curve fits were performed where the enzyme activities at the highest concentration of compounds were less than 65%. […] Compound 72b is referred to as KMI9542321 in the table below.

[2] = target: SUV420H1TV2 (Homo sapiens (Human), UniProt Q4FZB7); assay: Methyltransferase panel, 10-dose IC50 mode; format: biochemical; settings: Substrate: Nucleosomes; 1 μM SAM; read-out: Control IC50*
Description: as §1

[3] = target: SETD2 (Homo sapiens (Human), UniProt Q9BYW2); assay: Methyltransferase panel, 10-dose IC50 mode; format: biochemical; settings: Substrate: Nucleosomes; 1 μM SAM; read-out: Control IC50*
Sequence of SETD2 (Q9BYW2 whole entry): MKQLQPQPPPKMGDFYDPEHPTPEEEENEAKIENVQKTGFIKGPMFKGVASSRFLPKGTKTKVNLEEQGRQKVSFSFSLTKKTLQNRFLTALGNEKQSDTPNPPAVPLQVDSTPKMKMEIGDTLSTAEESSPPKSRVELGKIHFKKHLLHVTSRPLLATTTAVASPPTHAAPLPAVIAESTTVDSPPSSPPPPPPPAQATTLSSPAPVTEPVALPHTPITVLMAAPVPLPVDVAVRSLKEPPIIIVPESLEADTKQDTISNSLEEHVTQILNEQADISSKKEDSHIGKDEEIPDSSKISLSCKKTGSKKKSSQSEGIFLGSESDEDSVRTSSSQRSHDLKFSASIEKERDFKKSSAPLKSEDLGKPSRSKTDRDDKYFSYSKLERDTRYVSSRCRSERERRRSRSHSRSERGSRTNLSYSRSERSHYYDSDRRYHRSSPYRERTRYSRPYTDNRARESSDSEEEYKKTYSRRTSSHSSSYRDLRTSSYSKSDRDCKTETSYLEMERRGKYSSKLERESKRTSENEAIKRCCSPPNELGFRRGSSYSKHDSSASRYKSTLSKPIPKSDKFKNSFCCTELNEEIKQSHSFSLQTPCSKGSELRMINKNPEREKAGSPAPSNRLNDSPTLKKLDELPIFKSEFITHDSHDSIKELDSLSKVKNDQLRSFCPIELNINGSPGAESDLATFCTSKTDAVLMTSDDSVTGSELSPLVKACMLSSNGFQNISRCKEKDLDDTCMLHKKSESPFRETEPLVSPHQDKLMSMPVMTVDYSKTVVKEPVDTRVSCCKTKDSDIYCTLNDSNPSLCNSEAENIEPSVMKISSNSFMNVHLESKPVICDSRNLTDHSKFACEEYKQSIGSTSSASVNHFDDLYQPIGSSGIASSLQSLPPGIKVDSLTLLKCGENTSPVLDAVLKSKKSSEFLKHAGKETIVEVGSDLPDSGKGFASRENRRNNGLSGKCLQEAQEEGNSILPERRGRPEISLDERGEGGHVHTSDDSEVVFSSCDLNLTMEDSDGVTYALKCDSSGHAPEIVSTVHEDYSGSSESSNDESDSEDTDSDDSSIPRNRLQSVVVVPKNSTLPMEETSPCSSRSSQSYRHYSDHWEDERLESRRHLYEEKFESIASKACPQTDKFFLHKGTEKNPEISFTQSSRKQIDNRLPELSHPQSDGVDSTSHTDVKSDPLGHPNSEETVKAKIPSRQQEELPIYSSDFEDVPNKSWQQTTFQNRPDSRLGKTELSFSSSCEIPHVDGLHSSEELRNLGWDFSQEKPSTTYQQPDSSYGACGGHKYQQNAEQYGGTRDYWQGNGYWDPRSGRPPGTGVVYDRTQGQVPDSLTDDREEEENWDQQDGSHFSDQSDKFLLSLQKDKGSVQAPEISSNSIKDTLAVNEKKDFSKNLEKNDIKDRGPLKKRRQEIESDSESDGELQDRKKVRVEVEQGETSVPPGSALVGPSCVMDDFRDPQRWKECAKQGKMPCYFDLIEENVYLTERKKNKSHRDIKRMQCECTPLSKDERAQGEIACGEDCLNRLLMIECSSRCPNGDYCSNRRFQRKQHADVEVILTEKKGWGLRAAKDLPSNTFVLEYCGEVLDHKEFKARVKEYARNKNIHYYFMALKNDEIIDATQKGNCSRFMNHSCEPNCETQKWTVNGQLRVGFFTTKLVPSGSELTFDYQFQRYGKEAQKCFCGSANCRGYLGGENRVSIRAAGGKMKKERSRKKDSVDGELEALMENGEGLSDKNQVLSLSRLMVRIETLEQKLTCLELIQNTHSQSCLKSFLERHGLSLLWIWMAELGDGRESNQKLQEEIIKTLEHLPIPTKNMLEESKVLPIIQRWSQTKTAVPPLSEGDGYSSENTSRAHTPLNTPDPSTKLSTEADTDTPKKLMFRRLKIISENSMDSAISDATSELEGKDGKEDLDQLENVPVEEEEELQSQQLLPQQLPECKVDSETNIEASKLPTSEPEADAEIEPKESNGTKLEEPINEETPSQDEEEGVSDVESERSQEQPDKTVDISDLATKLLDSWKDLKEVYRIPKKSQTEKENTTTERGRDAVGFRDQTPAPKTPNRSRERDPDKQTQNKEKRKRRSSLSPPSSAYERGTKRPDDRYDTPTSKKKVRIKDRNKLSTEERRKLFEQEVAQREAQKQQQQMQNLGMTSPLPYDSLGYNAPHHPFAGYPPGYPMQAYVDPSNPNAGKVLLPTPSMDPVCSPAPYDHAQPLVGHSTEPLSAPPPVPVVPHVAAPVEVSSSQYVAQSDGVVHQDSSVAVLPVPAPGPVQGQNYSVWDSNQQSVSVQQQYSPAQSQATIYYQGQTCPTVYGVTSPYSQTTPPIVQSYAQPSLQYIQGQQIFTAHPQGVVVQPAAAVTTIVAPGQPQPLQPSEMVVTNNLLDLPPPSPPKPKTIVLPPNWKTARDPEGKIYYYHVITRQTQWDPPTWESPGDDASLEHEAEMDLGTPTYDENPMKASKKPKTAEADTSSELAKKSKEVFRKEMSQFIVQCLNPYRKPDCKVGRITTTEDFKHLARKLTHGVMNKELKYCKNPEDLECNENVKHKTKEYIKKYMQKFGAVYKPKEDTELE
Description: as §1

[4] = Methyltransferase panel, 10-dose IC50 mode; format: biochemical; settings: Substrate: Core Histone; 1 μM SAM; read-out: Control IC50*
Description: as §1

[5] = target: DNMT3a (Homo sapiens (Human), UniProt Q9Y6K1); assay: Methyltransferase panel, 10-dose IC50 mode; format: biochemical; settings: Substrate: Lambda DNA; 1 μM SAM; read-out: Control IC50*
Sequence of DNMT3a (Q9Y6K1 whole entry, looked up, species assumed): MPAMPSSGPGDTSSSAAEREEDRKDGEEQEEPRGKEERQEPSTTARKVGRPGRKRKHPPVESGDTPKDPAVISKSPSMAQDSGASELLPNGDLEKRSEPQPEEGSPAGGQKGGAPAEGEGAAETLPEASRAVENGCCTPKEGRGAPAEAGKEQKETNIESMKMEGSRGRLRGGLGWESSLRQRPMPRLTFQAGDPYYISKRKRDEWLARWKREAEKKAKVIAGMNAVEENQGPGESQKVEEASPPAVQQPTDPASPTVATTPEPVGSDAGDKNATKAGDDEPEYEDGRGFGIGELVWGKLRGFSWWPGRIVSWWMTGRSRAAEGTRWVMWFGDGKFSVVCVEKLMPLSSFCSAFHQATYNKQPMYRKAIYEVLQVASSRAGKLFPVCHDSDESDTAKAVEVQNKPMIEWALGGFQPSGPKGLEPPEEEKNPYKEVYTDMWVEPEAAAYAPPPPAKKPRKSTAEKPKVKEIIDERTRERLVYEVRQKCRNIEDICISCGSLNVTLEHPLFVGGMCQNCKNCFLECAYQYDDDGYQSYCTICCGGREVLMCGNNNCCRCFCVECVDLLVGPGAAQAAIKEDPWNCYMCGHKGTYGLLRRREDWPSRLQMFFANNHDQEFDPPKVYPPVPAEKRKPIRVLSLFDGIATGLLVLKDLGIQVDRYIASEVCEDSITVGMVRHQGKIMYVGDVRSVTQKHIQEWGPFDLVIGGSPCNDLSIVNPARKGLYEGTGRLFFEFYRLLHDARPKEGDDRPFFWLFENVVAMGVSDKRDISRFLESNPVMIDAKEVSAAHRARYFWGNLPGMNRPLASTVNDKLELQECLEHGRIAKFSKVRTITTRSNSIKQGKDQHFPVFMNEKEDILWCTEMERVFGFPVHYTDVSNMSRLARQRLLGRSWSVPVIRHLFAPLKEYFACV
Description: as §1

[6] = target: SMYD3 (Homo sapiens (Human), UniProt Q9H7B4); assay: Methyltransferase panel, 10-dose IC50 mode; format: biochemical; settings: Substrate: MEKK2; 1 μM SAM; read-out: Control IC50*
Description: as §1

[7] = target: PRMT6 (Homo sapiens (Human), UniProt Q96LA8); assay: Methyltransferase panel, 10-dose IC50 mode; format: biochemical
Sequence of PRMT6 (Q96LA8 whole entry, species assumed): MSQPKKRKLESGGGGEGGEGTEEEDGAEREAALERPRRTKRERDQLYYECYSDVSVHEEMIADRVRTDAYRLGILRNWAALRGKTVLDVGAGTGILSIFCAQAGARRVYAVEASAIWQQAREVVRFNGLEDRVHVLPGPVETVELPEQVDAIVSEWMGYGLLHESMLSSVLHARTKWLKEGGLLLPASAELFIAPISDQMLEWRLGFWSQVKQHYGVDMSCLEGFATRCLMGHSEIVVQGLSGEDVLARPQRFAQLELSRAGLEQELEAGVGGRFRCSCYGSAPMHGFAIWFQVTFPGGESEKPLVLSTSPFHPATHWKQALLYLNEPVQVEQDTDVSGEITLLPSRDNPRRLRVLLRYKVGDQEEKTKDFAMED
Description: as §1

[8] = target: NSD1 (Homo sapiens (Human), UniProt Q96L73); assay: Methyltransferase panel, 10-dose IC50 mode; format: biochemical; settings: Substrate: Nucleosomes; 1 μM SAM; read-out: Control IC50*
Description: as §1

[9] = target: DNMT3b (Homo sapiens (Human), UniProt Q9UBC3); assay: Methyltransferase panel, 10-dose IC50 mode; format: biochemical; settings: Substrate: Lambda DNA; 1 μM SAM; read-out: Control IC50*
Description: as §1

[10] = target: PRMT3 (Homo sapiens (Human), UniProt O60678); assay: Methyltransferase panel, 10-dose IC50 mode; format: biochemical; settings: Substrate: Histone H4; 1 μM SAM; read-out: Control IC50*
Description: as §1

[11] = target: SET7/9 (Homo sapiens (Human), UniProt Q8WTS6); assay: Methyltransferase panel, 10-dose IC50 mode; format: biochemical; settings: Substrate: Core Histone; 1 μM SAM; read-out: Control IC50*
Description: as §1

[12] = target: GLP (Homo sapiens (Human), UniProt Q9H9B1); assay: Methyltransferase panel, 10-dose IC50 mode; format: biochemical; settings: Substrate: Histone H3 (1-21); 1 μM SAM; read-out: Control IC50*
Description: as §1

[13] = target: NRMT2 (Homo sapiens (Human), UniProt Q5VVY1); assay: Methyltransferase panel, 10-dose IC50 mode; format: biochemical; settings: Substrate: RCC1; 1 μM SAM; read-out: Control IC50*
Sequence of NRMT2 (Q5VVY1 whole entry): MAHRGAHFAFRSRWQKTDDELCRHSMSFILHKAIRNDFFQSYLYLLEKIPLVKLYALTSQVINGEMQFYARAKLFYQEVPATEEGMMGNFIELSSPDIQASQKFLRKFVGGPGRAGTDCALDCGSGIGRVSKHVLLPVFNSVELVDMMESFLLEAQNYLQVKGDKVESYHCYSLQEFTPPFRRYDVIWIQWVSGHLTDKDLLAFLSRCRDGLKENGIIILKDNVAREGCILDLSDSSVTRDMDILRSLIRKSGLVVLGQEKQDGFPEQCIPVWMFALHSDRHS
Description: as §1

[14] = target: DNMT3b/3L (Homo sapiens (Human), UniProt Q9UBC3); assay: Methyltransferase panel, 10-dose IC50 mode; format: biochemical; settings: Substrate: Lambda DNA; 1 μM SAM; read-out: Control IC50*
Description: as §1

[15] = target: MLL3 Complex (Homo sapiens (Human), UniProt Q8NEZ4); assay: Methyltransferase panel, 10-dose IC50 mode; format: biochemical; settings: Substrate: Core Histone; 1 μM SAM; read-out: Control IC50*
Description: as §1

[16] = target: MLL1 Complex (Homo sapiens (Human), UniProt Q03164); assay: Methyltransferase panel, 10-dose IC50 mode; format: biochemical; settings: Substrate: Nucleosomes; 1 μM SAM; read-out: Control IC50*
Description: as §1

[17] = target: NRMT1 (Homo sapiens (Human), UniProt Q9BV86); assay: Methyltransferase panel, 10-dose IC50 mode; format: biochemical; settings: Substrate: RCC1; 1 μM SAM; read-out: Control IC50*
Sequence of NRMT1 (Q9BV86 whole entry): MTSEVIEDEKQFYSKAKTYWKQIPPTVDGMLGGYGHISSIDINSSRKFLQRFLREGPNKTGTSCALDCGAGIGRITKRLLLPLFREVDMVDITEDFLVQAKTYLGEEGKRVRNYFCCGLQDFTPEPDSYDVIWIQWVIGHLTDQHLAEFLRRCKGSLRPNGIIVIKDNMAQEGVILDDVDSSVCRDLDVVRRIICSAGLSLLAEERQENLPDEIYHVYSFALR
Description: as §1

[18] = target: SET1b Complex (Homo sapiens (Human), UniProt Q9UPS6); assay: Methyltransferase panel, 10-dose IC50 mode; format: biochemical; settings: Substrate: Core Histone; 1 μM SAM; read-out: Control IC50*
Description: as §1

[19] = target: T1, KMT9 (Homo sapiens (Human), UniProt Q9Y5N5); assay: Microscale thermophoresis (MST) KMT9-binding; settings: His-tag labelled KMT9 20 nM; read-out: Binding affinity in MST
T1 sequence (Q9Y5N5 whole entry): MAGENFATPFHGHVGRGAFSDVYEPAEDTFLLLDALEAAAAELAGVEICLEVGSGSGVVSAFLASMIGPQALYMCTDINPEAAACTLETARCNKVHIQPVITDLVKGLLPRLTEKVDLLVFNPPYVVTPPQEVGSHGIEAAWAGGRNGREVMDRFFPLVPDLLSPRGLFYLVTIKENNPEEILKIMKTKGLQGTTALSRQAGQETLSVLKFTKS
T1 sequence (Q9UI30 whole entry partner): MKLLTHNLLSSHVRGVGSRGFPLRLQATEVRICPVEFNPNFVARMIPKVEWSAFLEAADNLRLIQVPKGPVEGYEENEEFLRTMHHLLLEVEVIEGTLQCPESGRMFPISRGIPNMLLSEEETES
Description: To determine the binding affinity of the compound to KMT9, microscale thermophoresis (MST) analysis was performed with a NanoTemper Monolith NT.115 instrument (NanoTemper Technologies GmbH). KMT9 was labelled with a RED-Tris-NTA labelling kit (NanoTemper Technologies GmbH) based on the manufacturer's instructions. Buffer including 25 mM HEPES (pH 7.5), 100 mM NaCl, 1 mM DTT and 0.05% Tween was used for the reaction buffer. Varying concentrations of the compound were titrated against His-tag labelled KMT9 proteins (20 nM). Samples were loaded into standard Capillaries (NanoTemper Technologies GmbH) and MST measurements were performed using 40% MST power and 100% LED power. For each set of binding experiments, MST measurement was carried out with Binding Affinity module in MO. Control program under Nano-RED Excitation. Datasets were processed with the MO. Affinity Analysis software (NanoTemper Technologies GmbH).

[20] = target: T1, KMT9; assay: Methylation assay to test KMT9-inhibition ([3H]SAM, filter binding, scintillation); format: biochemical; settings: ETF1 or histone H4 substrate
Description: Methylation assays were performed to test inhibition of the KMT9 methyltransferase activity by compound 72b. To test the compound, 1 μL of the compound, dissolved in DMSO at different concentrations, was added to a 0.5 ml tube (Brand Gmbh&Co KG). Afterwards, 4 μL of assay buffer (50 mM BTP, 1 mM MgCl2, 1 mM DTT, 0.01% TX-100, pH 8.5) were added together with 10 μL of 2× solution of KMT9 diluted in assay buffer (final concentration 0.025-0.6 μM). The solutions were mixed and incubated for 20 min at room temperature, shaking at 300 rpm. Afterwards, 5 μL of 4× Protein-SAM mix was added (final concentrations: 5 μM ETF1 or histone H4, SAM: 1-2.5 μM (including 30% of radioactively labelled [3H]SAM)) to a final assay volume of 20 μL. The reaction mixtures were mixed and incubated in an Eppendorf thermomixer comfort for 2 h at 30° C., shaking at 300 rpm. The reaction was quenched using 5 μL of 50% trichloroacetic acid (TCA) in water, mixed and incubated for 5 min at room temperature without shaking. […] The scintillation signal was measured for 3×1 min using Tri-Carb 2910 TR (PerkinElmer) scintillation counter in [^3H] […]

[21] = test system: plurality of methyltransferases including DOT1L; assay: Specificity across a plurality of methyltransferases; format: biochemical; settings: 10-dose IC50 mode starting at 10 μM, 1 μM SAM
Description: as §1

[22] = target: T1, KMT9; assay: Methyltransferase panel, 10-dose IC50 mode; format: biochemical; settings: Substrate: Histone H4; 1 μM SAM; read-out: Compound IC50* (M) KMI9542321
Description: as §1

[23] = target: T1, KMT9; assay: Thermal shift assay of KMT9 upon inhibitor binding; settings: thermal shift at 500 μM
Description: For inhibitor testing, 1 μL of the compound, dissolved in DMSO at different concentrations, were added to a 96 well hard-shell PCR plate (Bio-Rad). Afterwards 4 μL of assay buffer (50 mM BTP, 1 mM MgCl2, 1 mM DTT, pH 8.5) were added, followed by 10 μL of 2×KMT9 (final concentration 2 μM) in assay buffer. After addition of 5 μL 4×SYPRO-Orange (Sigma) (final concentration 5×), the plate was spun for 1 min at 700 rpm, then shaken at 600 rpm for 15 minutes. After another […] spinning at 700 rpm for 1 min, measurement was performed using a CFX96 Touch Real-Time PCR Detection System (Bio-Rad). The plate was equilibrated at 20° C. for 4 minutes before heating gradually by 1° C. every 15 seconds until 95° C. After every step, the fluorescence was measured in FRET mode. The thermal shift at 500 μM is detected in K (Kelvin). For Example 9o, the thermal shift at 250 μM is detected in K (Kelvin). The obtained thermal shift obtained by adding the tested compound is shown in the table below as follows: shift ≤5 K is denoted with a “+”, shift >5 and ≤15 K is denoted with “++”, and shift >15 K is denoted with “+++”.

`Nc1ncnc2c1ncn2[C@@H]1O[C@H](CSCC[C@H](N)C(=O)O)[C@@H](O)[C@H]1O` [SAH, S-(5′-Adenosyl)-L-homocysteine] showed a pIC50 [1] of 3.99, a pIC50 [2] of 3.86 and a pIC50 [3] of 5.39. The pIC50 [4] was 4.58, the pIC50 [5] was 6.48 and the pIC50 [6] was 4.89. For the same compound, the pIC50 [7] was 6.70, the pIC50 [8] was 5.36 and the pIC50 [9] was 7.45. It also gave a pIC50 [10] of 5.73, a pIC50 [11] of 3.55 and a pIC50 [12] of 5.92. It also gave a pIC50 [13] of 6.19, a pIC50 [14] of 7.49 and a pIC50 [15] of 4.60. For the same compound, the pIC50 [16] was 5.93, the pIC50 [17] was 5.97 and the pIC50 [18] was 5.28.

In the case of `CNc1ncnc2c1ccn2[C@@H]1C[C@H](CN(CCCNCCc2ccccc2)CC[C@H](N)C(=O)O)[C@@H](O)[C@H]1O` [Compound 72b, (S)-2-amino-4-((((1R,2R,3S,4R)-2,3-dihydroxy-4-(4-(methylamino)-7H-pyrrolo[2,3-d]pyrimidin-7-yl)cyclopentyl)methyl)(3-(phenethylamino)propyl)amino)butanoic acid], the pKd [19] was > 7.00, the pIC50 [20] was > 7.00 and the “specificity for KMT9-inhibition versus other methyltransferases” value [21] was “specific for KMT9-inhibition”. It also gave an IC50 [22] of 2e-07 M and a ΔTm at 500 µM [23] of 5 to 15 °C.
